Consider two compounds from patent publication US12227500B2, “Substituted pyrrolo[2,3-b]pyridines for suppressing toxic endoplasmic reticulum stress” (THE TRUSTEES OF COLUMBIA UNIVERSITY IN THE CITY OF NEW YORK, priority 2018, dated 2025).

What all share (assay): Radiolabeled ATP kinase assay, panel of 371 kinases (Table S6)
Common to all, as to format: biochemical

Assay [1] addresses T1, panel of 371 human kinases (Homo sapiens, UniProt O00238).
T1 construct: purchased Reaction Biology Corp
The settings on record: ALK6/BMPR1B; 0.1 μM; 10 μM ATP; read-out: % Enzyme Activity (relative to DMSO controls). An excerpt: (§1) ; FIG. 38C). […]. Further targeted analyses, such as genetic knock-down or knock-out, may be warranted to parse the role of these additional kinases in our model of neurodegeneration.

In assay [2] the target is T2, panel of 371 human kinases (Homo sapiens, UniProt O75914).
T2 construct: purchased Reaction Biology Corp
The settings on record: PAK3; 0.1 μM; 10 μM ATP; read-out: % Enzyme Activity (relative to DMSO controls).
From the text: as §1

Assay [3] addresses T3, panel of 371 human kinases (Homo sapiens, UniProt P04626).
T3 construct: purchased Reaction Biology Corp
The conditions noted are these: ERBB2/HER2; 0.1 μM; 10 μM ATP; read-out: % Enzyme Activity (relative to DMSO controls).
From the text: as §1

For assay [4], the target named is T4, panel of 371 human kinases (Homo sapiens, UniProt P08069).
T4 construct: purchased Reaction Biology Corp
The settings on record: IGF1R; 0.1 μM; 10 μM ATP; read-out: % Enzyme Activity (relative to DMSO controls).
From the text: as §1

Assay [5] addresses T5, panel of 371 human kinases (Homo sapiens, UniProt P11309).
T5 construct: purchased Reaction Biology Corp
The settings on record: PIM1; 0.1 μM; 10 μM ATP; read-out: % Enzyme Activity (relative to DMSO controls).
From the text: as §1

Assay [6] concerns the target T6, panel of 371 human kinases (Homo sapiens, UniProt P29376).
T6 construct: purchased Reaction Biology Corp
The settings on record: TYK1/LTK; 0.1 μM; 10 μM ATP; read-out: % Enzyme Activity (relative to DMSO controls).
From the text: as §1

The target of assay [7] is T7, panel of 371 human kinases (Homo sapiens, UniProt P30291).
T7 construct: purchased Reaction Biology Corp
The settings on record: WEE1; 0.1 μM; 10 μM ATP; read-out: % Enzyme Activity (relative to DMSO controls).
From the text: as §1

Assay [8] has as its target T8, panel of 371 human kinases (Homo sapiens, UniProt P35968).
T8 construct: purchased Reaction Biology Corp
The settings on record: KDR/VEGFR2; 0.1 μM; 10 μM ATP; read-out: % Enzyme Activity (relative to DMSO controls).
From the text: as §1

Assay [9] concerns the target T9, panel of 371 human kinases (Homo sapiens, UniProt P45983).
T9 construct: purchased Reaction Biology Corp
The settings on record: JNK1; 0.1 μM; 10 μM ATP; read-out: % Enzyme Activity (relative to DMSO controls).
From the text: as §1

Assay [10] has as its target T10, panel of 371 human kinases (Homo sapiens, UniProt P51812).
T10 construct: purchased Reaction Biology Corp
The settings on record: RSK2; 0.1 μM; 10 μM ATP; read-out: % Enzyme Activity (relative to DMSO controls).
From the text: as §1

The target in assay [11] is T11, panel of 371 human kinases (Homo sapiens, UniProt P78368).
T11 construct: purchased Reaction Biology Corp
The settings on record: CK1g2; 0.1 μM; 10 μM ATP; read-out: % Enzyme Activity (relative to DMSO controls).
From the text: as §1

In assay [12] the target is T12, panel of 371 human kinases (Homo sapiens, UniProt Q08345).
T12 construct: purchased Reaction Biology Corp
The conditions noted are these: DDR1; 0.1 μM; 10 μM ATP; read-out: % Enzyme Activity (relative to DMSO controls).
From the text: as §1

Assay [13] deals with T13, panel of 371 human kinases (Homo sapiens, UniProt Q08881).
T13 construct: purchased Reaction Biology Corp
The conditions noted are these: ITK; 0.1 μM; 10 μM ATP; read-out: % Enzyme Activity (relative to DMSO controls).
From the text: as §1

Assay [14] concerns the target T14, panel of 371 human kinases (Homo sapiens, UniProt Q09013).
T14 construct: purchased Reaction Biology Corp
The settings on record: DMPK; 0.1 μM; 10 μM ATP; read-out: % Enzyme Activity (relative to DMSO controls).
From the text: as §1

Assay [15] concerns the target T15, panel of 371 human kinases (Homo sapiens, UniProt Q12852).
T15 construct: purchased Reaction Biology Corp
The settings on record: DLK/MAP3K12; 0.1 μM; 10 μM ATP; read-out: % Enzyme Activity (relative to DMSO controls).
From the text: as §1

In assay [16] the target is T16, panel of 371 human kinases (Homo sapiens, UniProt Q13627).
T16 construct: purchased Reaction Biology Corp
The settings on record: DYRK1/DYRK1A; 0.1 μM; 10 μM ATP; read-out: % Enzyme Activity (relative to DMSO controls).
From the text: as §1

The target in assay [17] is T17, panel of 371 human kinases (Homo sapiens, UniProt Q14012).
T17 construct: purchased Reaction Biology Corp
The conditions noted are these: CAMK1a; 0.1 μM; 10 μM ATP; read-out: % Enzyme Activity (relative to DMSO controls).
From the text: as §1

The target of assay [18] is T18, panel of 371 human kinases (Homo sapiens, UniProt Q16816).
T18 construct: purchased Reaction Biology Corp
The conditions noted are these: PHKg1; 0.1 μM; 10 μM ATP; read-out: % Enzyme Activity (relative to DMSO controls).
From the text: as §1

Assay [19] deals with T19, panel of 371 human kinases (Homo sapiens, UniProt Q52WX2).
T19 construct: purchased Reaction Biology Corp
The settings on record: SBK1; 0.1 μM; 10 μM ATP; read-out: % Enzyme Activity (relative to DMSO controls).
From the text: as §1

Assay [20] concerns the target T20, panel of 371 human kinases (Homo sapiens, UniProt Q92918).
T20 construct: purchased Reaction Biology Corp
The conditions noted are these: HPK1/MAP4K1; 0.1 μM; 10 μM ATP; read-out: % Enzyme Activity (relative to DMSO controls).
From the text: as §1

The target of assay [21] is T21, panel of 371 human kinases (Homo sapiens, UniProt Q99683).
T21 construct: purchased Reaction Biology Corp
The conditions noted are these: ASK1/MAP3K5; 0.1 μM; 10 μM ATP; read-out: % Enzyme Activity (relative to DMSO controls).
From the text: as §1

Assay [22] has as its target T22, panel of 371 human kinases (Homo sapiens, UniProt Q99986).
T22 construct: purchased Reaction Biology Corp
The conditions noted are these: VRK1; 0.1 μM; 10 μM ATP; read-out: % Enzyme Activity (relative to DMSO controls).
From the text: as §1

The target of assay [23] is T23, panel of 371 human kinases (Homo sapiens, UniProt Q9BYP7).
T23 construct: purchased Reaction Biology Corp
The conditions noted are these: WNK3; 0.1 μM; 10 μM ATP; read-out: % Enzyme Activity (relative to DMSO controls).
From the text: as §1

In assay [24] the target is T24, panel of 371 human kinases (Homo sapiens, UniProt Q9UM73).
T24 construct: purchased Reaction Biology Corp
The conditions noted are these: ALK; 0.1 μM; 10 μM ATP; read-out: % Enzyme Activity (relative to DMSO controls).
From the text: as §1

The structures appear in SMILES notation.

T8 sequence (P35968 20-1356): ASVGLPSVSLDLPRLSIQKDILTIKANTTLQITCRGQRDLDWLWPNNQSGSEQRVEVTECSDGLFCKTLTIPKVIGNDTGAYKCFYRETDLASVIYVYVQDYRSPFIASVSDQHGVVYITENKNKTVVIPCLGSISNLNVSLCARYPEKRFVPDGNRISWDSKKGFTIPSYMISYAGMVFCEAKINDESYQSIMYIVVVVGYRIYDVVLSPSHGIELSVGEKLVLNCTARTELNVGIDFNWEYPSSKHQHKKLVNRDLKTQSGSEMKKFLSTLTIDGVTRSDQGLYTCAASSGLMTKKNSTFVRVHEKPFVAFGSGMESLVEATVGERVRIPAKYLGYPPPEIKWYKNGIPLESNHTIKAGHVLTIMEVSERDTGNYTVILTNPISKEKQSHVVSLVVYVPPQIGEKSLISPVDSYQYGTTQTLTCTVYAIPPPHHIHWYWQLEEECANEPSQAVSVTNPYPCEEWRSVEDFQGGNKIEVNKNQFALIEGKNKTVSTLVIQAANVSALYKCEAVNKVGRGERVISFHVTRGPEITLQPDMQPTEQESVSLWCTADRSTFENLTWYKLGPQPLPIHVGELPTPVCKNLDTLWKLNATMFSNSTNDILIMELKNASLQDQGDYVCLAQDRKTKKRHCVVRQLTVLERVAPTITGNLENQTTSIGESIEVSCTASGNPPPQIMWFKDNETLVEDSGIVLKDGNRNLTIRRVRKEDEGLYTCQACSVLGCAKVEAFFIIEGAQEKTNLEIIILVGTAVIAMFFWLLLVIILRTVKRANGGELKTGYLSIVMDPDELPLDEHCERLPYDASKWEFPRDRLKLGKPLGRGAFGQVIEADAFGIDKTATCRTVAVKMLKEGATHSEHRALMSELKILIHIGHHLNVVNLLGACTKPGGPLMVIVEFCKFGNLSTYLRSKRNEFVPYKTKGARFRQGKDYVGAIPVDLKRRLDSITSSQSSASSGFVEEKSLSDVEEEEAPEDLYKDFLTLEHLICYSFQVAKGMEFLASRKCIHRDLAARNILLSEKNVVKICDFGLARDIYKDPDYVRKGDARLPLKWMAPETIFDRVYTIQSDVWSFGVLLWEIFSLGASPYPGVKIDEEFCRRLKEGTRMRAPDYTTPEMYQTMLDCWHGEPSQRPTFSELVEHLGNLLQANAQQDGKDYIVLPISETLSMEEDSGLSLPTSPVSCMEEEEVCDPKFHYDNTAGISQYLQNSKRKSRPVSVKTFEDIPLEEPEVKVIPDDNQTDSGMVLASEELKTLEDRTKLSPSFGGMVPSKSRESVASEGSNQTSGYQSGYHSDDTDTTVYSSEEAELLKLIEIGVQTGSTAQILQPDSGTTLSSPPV
T22 sequence (Q99986 whole entry): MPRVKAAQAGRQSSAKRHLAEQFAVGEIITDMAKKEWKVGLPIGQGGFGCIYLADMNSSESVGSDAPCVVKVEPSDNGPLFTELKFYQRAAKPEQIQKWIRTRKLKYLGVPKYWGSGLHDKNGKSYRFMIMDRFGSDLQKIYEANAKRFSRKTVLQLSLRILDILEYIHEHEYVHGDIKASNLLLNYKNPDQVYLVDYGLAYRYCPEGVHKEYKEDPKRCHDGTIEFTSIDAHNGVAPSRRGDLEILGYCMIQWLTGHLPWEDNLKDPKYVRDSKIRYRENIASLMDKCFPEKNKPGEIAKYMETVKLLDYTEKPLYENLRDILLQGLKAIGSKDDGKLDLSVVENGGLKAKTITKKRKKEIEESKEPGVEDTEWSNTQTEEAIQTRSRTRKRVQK
T18 sequence (Q16816 whole entry): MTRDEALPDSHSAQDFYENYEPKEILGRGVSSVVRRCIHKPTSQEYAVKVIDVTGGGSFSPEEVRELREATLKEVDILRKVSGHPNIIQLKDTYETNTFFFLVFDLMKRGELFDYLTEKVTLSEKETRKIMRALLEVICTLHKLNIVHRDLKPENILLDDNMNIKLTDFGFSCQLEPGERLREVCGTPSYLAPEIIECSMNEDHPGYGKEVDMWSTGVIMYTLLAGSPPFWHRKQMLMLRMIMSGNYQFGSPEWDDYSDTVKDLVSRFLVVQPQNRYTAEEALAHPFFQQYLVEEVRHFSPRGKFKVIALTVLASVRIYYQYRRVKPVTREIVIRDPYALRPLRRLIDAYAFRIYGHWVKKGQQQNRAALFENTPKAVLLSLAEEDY
T15 sequence (Q12852 whole entry): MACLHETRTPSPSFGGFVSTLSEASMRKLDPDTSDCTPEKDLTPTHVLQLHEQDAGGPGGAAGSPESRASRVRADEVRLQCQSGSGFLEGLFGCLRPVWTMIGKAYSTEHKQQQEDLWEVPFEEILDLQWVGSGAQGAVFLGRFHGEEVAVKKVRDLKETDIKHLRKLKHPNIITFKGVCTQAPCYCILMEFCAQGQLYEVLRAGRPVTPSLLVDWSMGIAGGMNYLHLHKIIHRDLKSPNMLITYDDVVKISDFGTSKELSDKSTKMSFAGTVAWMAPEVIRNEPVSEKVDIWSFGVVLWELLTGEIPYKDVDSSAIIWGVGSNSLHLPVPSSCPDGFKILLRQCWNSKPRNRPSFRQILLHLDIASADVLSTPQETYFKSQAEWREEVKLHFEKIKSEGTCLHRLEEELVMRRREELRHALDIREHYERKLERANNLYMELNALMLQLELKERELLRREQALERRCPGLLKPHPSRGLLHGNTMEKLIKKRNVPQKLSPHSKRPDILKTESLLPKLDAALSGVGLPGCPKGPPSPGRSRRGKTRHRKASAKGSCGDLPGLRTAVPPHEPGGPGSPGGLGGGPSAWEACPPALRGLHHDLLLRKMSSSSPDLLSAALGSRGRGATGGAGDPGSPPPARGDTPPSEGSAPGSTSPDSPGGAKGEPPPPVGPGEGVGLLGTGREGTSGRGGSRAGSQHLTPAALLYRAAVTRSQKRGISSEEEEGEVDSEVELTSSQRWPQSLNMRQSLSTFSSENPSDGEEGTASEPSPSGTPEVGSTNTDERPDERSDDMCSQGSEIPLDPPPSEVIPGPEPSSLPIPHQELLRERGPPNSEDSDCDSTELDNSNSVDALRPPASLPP
T10 sequence (P51812 whole entry): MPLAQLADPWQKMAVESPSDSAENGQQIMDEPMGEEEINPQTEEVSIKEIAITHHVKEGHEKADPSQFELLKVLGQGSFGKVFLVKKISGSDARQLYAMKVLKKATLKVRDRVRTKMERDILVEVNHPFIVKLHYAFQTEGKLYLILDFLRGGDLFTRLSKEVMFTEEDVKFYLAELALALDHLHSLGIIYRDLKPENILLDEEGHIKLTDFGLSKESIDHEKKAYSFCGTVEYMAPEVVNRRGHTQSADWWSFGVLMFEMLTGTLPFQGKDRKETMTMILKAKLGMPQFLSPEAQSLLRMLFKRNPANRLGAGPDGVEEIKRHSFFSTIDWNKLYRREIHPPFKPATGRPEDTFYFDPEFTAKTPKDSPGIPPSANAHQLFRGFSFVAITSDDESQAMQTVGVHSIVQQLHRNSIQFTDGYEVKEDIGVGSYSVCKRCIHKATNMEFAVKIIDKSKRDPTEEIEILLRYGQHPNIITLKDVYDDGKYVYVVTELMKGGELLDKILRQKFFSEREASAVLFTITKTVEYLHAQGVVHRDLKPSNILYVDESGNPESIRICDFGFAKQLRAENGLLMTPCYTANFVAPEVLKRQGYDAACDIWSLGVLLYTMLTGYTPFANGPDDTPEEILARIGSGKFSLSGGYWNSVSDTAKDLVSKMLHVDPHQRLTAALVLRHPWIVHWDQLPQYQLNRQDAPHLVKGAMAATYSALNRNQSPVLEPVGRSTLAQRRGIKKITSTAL
T12 sequence (Q08345 19-913): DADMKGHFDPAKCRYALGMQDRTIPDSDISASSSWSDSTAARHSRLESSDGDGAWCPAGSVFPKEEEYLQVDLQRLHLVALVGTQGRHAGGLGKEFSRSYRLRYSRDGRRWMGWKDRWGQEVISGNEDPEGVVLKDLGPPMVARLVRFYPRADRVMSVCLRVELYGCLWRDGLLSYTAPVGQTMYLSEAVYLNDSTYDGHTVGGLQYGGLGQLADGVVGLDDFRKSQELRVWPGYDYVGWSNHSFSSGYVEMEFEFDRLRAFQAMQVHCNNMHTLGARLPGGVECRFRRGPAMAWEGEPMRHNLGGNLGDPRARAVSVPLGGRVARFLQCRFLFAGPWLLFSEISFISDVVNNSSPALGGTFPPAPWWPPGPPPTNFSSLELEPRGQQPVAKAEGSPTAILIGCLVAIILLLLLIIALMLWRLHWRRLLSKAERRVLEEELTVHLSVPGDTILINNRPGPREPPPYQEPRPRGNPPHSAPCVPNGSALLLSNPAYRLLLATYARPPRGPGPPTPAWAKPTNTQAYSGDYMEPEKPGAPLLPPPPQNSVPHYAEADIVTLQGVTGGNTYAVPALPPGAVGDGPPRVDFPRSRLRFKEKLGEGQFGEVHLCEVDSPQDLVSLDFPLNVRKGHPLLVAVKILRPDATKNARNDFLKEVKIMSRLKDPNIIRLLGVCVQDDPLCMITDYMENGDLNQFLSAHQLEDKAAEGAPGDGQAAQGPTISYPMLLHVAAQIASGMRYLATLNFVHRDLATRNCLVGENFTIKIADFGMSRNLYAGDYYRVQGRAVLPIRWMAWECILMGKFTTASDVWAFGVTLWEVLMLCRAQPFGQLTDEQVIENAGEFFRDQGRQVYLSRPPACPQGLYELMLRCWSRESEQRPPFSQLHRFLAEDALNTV
T5 sequence (P11309 whole entry): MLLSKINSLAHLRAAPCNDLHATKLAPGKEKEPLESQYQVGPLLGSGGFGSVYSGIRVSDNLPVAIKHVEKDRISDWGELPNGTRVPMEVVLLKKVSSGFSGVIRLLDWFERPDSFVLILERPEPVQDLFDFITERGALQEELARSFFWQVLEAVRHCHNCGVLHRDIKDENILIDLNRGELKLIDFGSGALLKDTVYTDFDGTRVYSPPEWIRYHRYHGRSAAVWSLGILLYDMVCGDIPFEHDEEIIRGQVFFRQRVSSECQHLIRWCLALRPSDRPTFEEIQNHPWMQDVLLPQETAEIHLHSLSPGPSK

Turning to `OCCN1CCN(Cc2ccc(-c3cnc4[nH]cc(-c5cccc(Cl)c5)c4c3)cc2)CC1` [Compound 12k, 2-(4-(4-(3-(3-Chlorophenyl)-1H-pyrrolo[2,3-b]pyridin-5-yl)benzyl)piperazin-1-yl)ethan-1-ol], the remaining activity at 0.1 µM in assay [1] was determined as 125%; in assay [2] it was 90.8%; in [3] it was 96%; in assay [4] it was 95.4%; in assay [5], 98.5%; in [6], 117%. Further, the remaining activity at 0.1 µM in assay [7] is 86.6%; in assay [8], 84.7%; in [9], 86.8%; in [10] it was 77.3%; in [11], 102%; in [12], 86.6%. The remaining activity at 0.1 µM in assay [13] came to 102%; in [14], 97.7%; in [15], 82.8%; in [16] it was 40.7%; in assay [17], 121%; in assay [18], 74.5%. Further, the remaining activity at 0.1 µM was determined as 98.7% in assay [19]; 47.9% in assay [20]; 95.7% in assay [21]; 88.3% in assay [22]; 82.2% in assay [23]; 85.3% in assay [24].
As for `CN1CCN(Cc2ccc(-c3cnc4[nH]cc(-c5ccc6[nH]ccc6c5)c4c3)cc2)CC1` [Compound 1, 3-(1H-Indol-5-yl)-5-(4-((4-methylpiperazin-1-yl)methyl)phenyl)-1H-pyrrolo[2,3-b]pyridine, reference compound], the remaining activity at 0.1 µM in [1] amounted to 116%; in [2], 97.3%; in assay [3], 95.3%; in [4] it was 95.4%; in assay [5], 93.2%; in assay [6], 105%. Also, the remaining activity at 0.1 µM was 114% in assay [7]; 76.2% in assay [8]; 98.2% in assay [9]; 105% in assay [10]; 102% in [11]; 89.9% in assay [12]. Moreover, the remaining activity at 0.1 µM in assay [13] was found to be 101%; in assay [14] it was 96.6%; in assay [15], 90.8%; in [16], 52.4%; in assay [17], 100%; in assay [18], 37.6%. Moreover, the remaining activity at 0.1 µM in assay [19] is 99%; in [20] it was 49.6%; in assay [21], 103%; in [22], 95.8%; in [23] it was 93.7%; in assay [24] it was 73.8%.
